Assay results published in patent EP0319576B1, “PROSTAGLANDIN DERIVATIVES, PROCESSES FOR PREPARING THEM AND PHARMACEUTICAL COMPOSITIONS CONTAINING SAID DERIVATIVES” (IBI- Istituto Biochimico Italiano Giovanni Lorenzini S.p.A., priority 1987, dated 1988).

Assays:
[1] = test system: NaOH (2) 0.2 N; experiment: Cytoprotective activity in the rat, NaOH 0.2 N; format: in vivo; conditions: read-out: Cytoprotective activity DE50, NaOH (2) 0.2 N
Description: (§1) iv) Cytoprotective activity in the rat
(§2) The tests were carried out according to what has been described in literature: • 1 (A.Robert et al. Gastroenterology, 77, 433 (1979)) (Table 4) • 2 (Szabo et al. Sciene 214 (200) (1981)) (Table 4)

[2] = test system: Acetyl salicyl-ic acid + HCl; experiment: Cytoprotective activity in the rat, acetylsalicylic acid + HCl; format: in vivo; conditions: read-out: Cytoprotective activity DE50, Acetyl salicyl-ic acid + HCl
Description: as §1, §2

[3] = test system: Ethanol (1) +NEM; experiment: Cytoprotective activity in the rat, Ethanol + NEM; format: in vivo; conditions: read-out: Cytoprotective activity DE50, Ethanol (1) +NEM
Description: as §1, §2

[4] = test system: NaCl (2) 25%; experiment: Cytoprotective activity in the rat, NaCl 25%; format: in vivo; conditions: read-out: Cytoprotective activity DE50, NaCl (2) 25%
Description: as §1, §2

[5] = Oral LD50 in the rat; conditions: in vivo

SMILES | ED50 [1] | ED50 [2] | ED50 [3] | ED50 [4] | LD50 [5]
CCCCCCC1CCC2(NC(=O)NC2=O)C1CCCCCCC(=O)O (centres unmarked) [IBI-P-01028, 5-spiro-[2-(6-carboxy-ethyl)-3-hexyl-cyclopentyl]-imidazoline-2,4-dione] | 18 mg/kg | 78 mg/kg | 30 mg/kg | 15 mg/kg | 2000 mg/kg
CCCCCCC1CCC(N)C1CCCCCCC(OCC)OCC (centres unmarked) [IBI-P-01053, 3-hexyl-2-(6-diethoxymethyl-hexyl)-cyclopentyl amine] | 6 mg/kg | 252 mg/kg | 7 mg/kg | 17 mg/kg | 3000 mg/kg
CCCCCCC1CCCC(N)C1CCCCCCC(=O)O (centres unmarked) [IBI-P-05006, 3-hexyl-2-(6-carboxy-hexyl)-cyclohexyl-amine] | 9 mg/kg | > 200 mg/kg | 20 mg/kg | 25 mg/kg | 3000 mg/kg
CCCCCC1C(N)CCC1CCCCCCCCO (centres unmarked) [IBI-P-10007, 2-pentyl-3-(8-hydroxy-octyl)-cyclopentyl amine] | 4 mg/kg | 165 mg/kg | 8 mg/kg | 4 mg/kg | 3000 mg/kg
